The values that follow come from paper PMC10924921, “Mi-2β promotes immune evasion in melanoma by activating EZH2 methylation” (Nature Communications, 2024).

Common to all, as to experiment: biochemical
Common to all, as to set-up: KINOMEscan active-site competition binding panel (468 kinase assays), per cent of control at 1000 nM
Common to all, as to conditions: KINOMEscan per cent of control (binding competition); read-out: Percent Control

For one test, the target named is NEK4 (Homo sapiens, UniProt P51957). An excerpt: (§1) Figure S7 / Percent Control
The target in a further test is FGFR4 (Homo sapiens, UniProt P22455).
From the text: as §1

The next test has as its target PIKFYVE (Homo sapiens, UniProt Q9Y2I7).
From the text: as §1

For a further test, the target named is PIK3C2G (Homo sapiens, UniProt O75747).
Chain of PIK3C2G (O75747 whole entry): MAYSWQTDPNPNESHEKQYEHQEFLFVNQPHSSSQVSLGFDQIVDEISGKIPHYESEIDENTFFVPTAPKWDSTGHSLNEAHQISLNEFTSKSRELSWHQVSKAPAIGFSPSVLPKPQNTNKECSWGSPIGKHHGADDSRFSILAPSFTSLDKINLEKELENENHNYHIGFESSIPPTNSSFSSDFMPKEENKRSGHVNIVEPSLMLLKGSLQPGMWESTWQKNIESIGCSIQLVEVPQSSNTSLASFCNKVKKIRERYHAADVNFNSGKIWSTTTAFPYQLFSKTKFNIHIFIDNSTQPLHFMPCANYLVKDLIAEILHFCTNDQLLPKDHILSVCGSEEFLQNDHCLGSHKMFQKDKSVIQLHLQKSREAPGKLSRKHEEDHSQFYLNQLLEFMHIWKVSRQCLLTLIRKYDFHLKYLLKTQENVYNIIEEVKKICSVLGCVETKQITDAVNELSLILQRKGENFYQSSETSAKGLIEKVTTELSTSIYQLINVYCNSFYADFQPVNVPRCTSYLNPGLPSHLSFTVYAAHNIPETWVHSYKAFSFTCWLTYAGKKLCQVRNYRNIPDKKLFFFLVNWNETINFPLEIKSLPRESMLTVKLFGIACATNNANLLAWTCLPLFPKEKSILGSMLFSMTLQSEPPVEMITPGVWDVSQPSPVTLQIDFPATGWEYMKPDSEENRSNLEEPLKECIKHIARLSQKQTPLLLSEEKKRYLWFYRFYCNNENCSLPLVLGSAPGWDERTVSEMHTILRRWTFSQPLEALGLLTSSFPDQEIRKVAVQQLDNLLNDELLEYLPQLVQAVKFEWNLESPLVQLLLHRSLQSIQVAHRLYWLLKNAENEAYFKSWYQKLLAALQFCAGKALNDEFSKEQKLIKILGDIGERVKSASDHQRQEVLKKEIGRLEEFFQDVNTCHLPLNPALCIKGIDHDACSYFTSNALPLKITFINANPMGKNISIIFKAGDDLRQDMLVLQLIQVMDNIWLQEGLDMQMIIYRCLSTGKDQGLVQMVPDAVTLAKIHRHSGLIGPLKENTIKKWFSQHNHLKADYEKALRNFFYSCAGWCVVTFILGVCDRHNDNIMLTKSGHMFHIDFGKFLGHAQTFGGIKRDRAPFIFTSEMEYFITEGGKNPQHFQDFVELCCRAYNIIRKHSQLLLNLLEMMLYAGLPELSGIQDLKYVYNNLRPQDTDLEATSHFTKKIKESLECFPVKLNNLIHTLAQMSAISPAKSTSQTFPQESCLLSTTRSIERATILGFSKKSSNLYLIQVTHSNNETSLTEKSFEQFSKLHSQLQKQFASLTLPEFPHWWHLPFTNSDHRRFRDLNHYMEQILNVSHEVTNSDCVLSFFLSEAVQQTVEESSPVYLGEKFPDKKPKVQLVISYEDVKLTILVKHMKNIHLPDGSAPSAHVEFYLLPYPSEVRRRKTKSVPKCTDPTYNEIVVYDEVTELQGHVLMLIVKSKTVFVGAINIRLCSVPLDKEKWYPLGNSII
From the text: as §1

The next test has as its target MARK4 (Homo sapiens, UniProt Q96L34).
From the text: as §1

Another test deals with CSNK1G2 (Homo sapiens, UniProt P78368).
From the text: as §1

In another test the target is DDR1 (Homo sapiens, UniProt Q08345).
From the text: as §1

The target of a further test is T1, ASK2 (Homo sapiens, UniProt O95382).
T1 construct: gene MAP3K6
From the text: as §1

For another test, the target named is EPHA3 (Homo sapiens, UniProt P29320).
From the text: as §1

In test [1] the target is T2, ABL1(T315I)-nonphosphorylated (Homo sapiens, UniProt P00519, T315I).
T2 construct: nonphosphorylated
From the text: as §1

Another test concerns the target MAP3K1 (Homo sapiens, UniProt Q13233).
From the text: as §1

A further test concerns the target TAOK2 (Homo sapiens, UniProt Q9UL54).
From the text: as §1

The target of another test is T3, MRCKA (Homo sapiens, UniProt Q5VT25).
T3 construct: gene CDC42BPA
From the text: as §1

Another test addresses T4, YANK3 (Homo sapiens, UniProt Q86UX6).
T4 construct: gene STK32C
From the text: as §1

The target in the next test is T5, YANK2 (Homo sapiens, UniProt Q9NY57).
T5 construct: gene STK32B
From the text: as §1

For another test, the target named is CAMK2D (Homo sapiens, UniProt Q13557).
Chain of CAMK2D (Q13557 whole entry): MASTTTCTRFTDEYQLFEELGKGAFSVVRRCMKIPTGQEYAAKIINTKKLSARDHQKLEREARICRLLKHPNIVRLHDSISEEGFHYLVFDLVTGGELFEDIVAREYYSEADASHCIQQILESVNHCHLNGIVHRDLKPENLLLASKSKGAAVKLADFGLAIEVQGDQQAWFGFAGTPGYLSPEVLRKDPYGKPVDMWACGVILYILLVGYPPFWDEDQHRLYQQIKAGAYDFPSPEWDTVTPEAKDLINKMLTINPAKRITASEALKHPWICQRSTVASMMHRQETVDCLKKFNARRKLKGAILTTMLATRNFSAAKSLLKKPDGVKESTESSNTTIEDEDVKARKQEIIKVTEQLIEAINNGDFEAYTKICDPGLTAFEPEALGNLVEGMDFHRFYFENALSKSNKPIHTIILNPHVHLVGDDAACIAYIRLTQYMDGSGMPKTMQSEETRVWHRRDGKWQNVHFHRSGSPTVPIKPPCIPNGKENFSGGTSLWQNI
From the text: as §1

The next test has as its target CHEK1 (Homo sapiens, UniProt O14757).
From the text: as §1

For the next test, the target named is EGFR(S752-I759del) (Homo sapiens, UniProt P00533, DEL752-759).
Chain of EGFR(S752-I759del) (P00533 with tags, fused parts or gaps DEL752-759): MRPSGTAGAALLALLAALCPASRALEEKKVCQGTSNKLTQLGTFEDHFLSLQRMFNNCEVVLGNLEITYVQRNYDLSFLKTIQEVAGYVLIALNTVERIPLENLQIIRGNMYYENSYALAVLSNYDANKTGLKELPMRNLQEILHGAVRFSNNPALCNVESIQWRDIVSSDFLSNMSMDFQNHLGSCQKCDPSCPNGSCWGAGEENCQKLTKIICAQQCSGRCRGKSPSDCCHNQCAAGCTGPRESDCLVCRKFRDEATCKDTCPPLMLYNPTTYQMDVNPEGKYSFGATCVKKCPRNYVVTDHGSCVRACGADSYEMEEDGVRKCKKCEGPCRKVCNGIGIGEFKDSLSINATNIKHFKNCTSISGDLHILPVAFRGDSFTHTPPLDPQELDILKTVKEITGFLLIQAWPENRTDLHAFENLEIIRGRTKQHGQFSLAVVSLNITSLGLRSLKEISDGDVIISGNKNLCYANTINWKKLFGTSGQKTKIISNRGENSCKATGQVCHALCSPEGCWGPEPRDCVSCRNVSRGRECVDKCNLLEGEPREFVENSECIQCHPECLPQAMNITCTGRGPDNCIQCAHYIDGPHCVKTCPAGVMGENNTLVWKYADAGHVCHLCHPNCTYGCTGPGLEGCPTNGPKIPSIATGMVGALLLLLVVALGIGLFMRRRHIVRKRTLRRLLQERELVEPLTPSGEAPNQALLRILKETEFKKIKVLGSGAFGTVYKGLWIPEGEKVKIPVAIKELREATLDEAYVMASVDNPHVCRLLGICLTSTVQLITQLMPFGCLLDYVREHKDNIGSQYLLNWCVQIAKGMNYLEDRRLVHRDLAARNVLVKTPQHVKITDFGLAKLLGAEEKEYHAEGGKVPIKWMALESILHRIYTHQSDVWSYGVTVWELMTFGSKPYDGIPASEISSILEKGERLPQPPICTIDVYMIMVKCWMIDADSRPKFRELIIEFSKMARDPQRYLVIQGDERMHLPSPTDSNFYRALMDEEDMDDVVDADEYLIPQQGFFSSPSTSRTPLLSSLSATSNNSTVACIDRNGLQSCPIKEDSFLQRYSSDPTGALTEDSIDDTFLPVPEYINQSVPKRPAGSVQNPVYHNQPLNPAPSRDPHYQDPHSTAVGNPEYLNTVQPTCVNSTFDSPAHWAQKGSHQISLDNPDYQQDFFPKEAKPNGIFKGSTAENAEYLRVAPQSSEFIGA
From the text: as §1

For the next test, the target named is MAP4K2 (Homo sapiens, UniProt Q12851).
From the text: as §1

In test [2] the target is T6, JAK1(JH2domain-pseudokinase) (Homo sapiens, UniProt P23458).
T6 construct: JH2domain-pseudokinase
From the text: as §1

The next test concerns the target BMPR1B (Homo sapiens, UniProt O00238).
From the text: as §1

The next test has as its target CAMK2B (Homo sapiens, UniProt Q13554).
From the text: as §1

A further test addresses SYK (Homo sapiens, UniProt P43405).
From the text: as §1

Test [3] deals with T7, RSK1(Kin.Dom.1-N-terminal) (Homo sapiens, UniProt Q15418).
T7 construct: gene RPS6KA1; Kin.Dom.1-N-terminal
T7 sequence (Q15418 whole entry): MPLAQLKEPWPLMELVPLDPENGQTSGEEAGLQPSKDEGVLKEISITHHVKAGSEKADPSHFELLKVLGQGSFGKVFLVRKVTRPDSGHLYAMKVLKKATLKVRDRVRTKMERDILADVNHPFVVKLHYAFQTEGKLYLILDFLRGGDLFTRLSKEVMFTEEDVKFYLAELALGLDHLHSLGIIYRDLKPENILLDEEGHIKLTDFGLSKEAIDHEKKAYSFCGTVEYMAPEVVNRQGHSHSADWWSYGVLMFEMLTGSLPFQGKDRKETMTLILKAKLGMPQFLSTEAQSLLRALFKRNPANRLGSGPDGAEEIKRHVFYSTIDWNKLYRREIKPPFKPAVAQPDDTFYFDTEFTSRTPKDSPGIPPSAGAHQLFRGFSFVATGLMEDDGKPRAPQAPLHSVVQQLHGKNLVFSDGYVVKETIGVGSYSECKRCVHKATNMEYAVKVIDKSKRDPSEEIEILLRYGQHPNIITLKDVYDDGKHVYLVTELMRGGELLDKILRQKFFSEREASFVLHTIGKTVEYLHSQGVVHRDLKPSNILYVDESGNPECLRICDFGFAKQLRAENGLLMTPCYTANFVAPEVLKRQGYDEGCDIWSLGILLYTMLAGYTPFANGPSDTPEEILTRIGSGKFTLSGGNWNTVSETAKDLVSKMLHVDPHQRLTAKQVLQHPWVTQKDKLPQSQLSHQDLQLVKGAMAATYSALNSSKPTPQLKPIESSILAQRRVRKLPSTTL
From the text: as §1

Chain of CAMK2B (Q13554 whole entry): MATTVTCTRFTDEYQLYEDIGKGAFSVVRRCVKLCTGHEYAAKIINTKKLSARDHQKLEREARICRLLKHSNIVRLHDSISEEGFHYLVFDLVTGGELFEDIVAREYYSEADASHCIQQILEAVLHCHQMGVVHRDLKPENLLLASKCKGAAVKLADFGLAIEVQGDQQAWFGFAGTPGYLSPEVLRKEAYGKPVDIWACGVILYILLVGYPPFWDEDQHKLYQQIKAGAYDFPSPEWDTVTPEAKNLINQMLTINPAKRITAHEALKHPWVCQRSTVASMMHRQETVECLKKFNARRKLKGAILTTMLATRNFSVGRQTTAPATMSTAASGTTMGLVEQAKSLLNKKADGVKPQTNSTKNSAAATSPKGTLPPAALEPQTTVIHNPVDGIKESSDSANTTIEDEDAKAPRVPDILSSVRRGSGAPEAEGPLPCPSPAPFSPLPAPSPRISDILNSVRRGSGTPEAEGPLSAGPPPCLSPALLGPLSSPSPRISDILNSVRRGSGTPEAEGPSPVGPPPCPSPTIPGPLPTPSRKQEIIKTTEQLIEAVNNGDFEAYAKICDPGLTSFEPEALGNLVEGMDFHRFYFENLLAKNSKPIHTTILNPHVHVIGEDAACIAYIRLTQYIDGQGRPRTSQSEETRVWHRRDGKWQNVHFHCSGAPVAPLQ
T4 sequence (Q86UX6 whole entry): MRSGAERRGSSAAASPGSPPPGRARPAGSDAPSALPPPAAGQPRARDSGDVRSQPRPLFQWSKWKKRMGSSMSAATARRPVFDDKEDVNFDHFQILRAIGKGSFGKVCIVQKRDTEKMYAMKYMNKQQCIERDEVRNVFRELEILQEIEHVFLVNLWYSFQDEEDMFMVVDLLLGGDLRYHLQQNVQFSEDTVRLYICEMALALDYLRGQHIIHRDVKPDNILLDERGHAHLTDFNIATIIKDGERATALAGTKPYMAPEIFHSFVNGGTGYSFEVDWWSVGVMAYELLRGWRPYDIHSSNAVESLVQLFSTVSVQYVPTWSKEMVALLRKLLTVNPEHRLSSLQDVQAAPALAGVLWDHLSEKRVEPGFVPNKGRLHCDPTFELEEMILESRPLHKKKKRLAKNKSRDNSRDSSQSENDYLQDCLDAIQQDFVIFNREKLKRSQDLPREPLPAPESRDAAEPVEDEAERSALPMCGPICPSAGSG

In the case of `Cn1c(=O)[nH]c2ccc(-c3cccc(C(=O)NC4CCn5ccnc5C4)c3)cc21` (stereo not drawn) [Z36-MP5], the remaining binding at 1 µM at NEK4 came out at 69%; at FGFR4 it was 76%; on PIKFYVE, 96%; at PIK3C2G it was 100%; at MARK4, 95%; on CSNK1G2, 86%. In addition, the remaining binding at 1 µM was 88% on DDR1; 93% on ASK2; 93% at EPHA3; 56% in test [1]; 54% at MAP3K1; 87% on TAOK2. Further, the remaining binding at 1 µM on MRCKA is 100%; at YANK3 it was 94%; on YANK2, 56%; on CAMK2D, 89%; at CHEK1, 93%; on EGFR(S752-I759del) it was 55%. The remaining binding at 1 µM on MAP4K2 came out at 81%; in test [2], 51%; at BMPR1B, 55%; at CAMK2B it was 91%; on SYK it was 57%; in [3], 93%.
